{"source": "patent US5545625A", "about": "“Preventing conversion of citrulline to argininosuccinate to limit pathological nitric oxide overproduction” (The Medical College of Wisconsin Research Foundation, Inc., priority 1994, dated 1996)", "key": {"[1]": {"test_system": "nitric oxide synthase mRNA", "test": "RT-PCR of nitric oxide synthase mRNA in induced rat aortic smooth muscle cells (Example III)", "type": "cell-based", "settings": "LPS 30 μg/ml plus interferon-gamma 50 ng/ml with mithramycin, 6 hours; FIG. 3", "method": "Rat aortic smooth muscle cells were grown as described in Example I and were treated with 30 μg/ml bacterial lipopolysaccharide in combination with 50 ng/ml interferon-gamma. […] RNA was extracted by a modified guanidinium isothiocyanate method (RNAzol; Cinna/Biotecz, Houston, Tex.). Reverse transcriptase-polymerase chain reaction was performed by standard methods using 1 μg of total RNA. This was followed by polymerase chain reaction amplification using synthetic gene-specific primers for rat argininosuccinate synthetase as described in Amaya, Y., et al, J. Biochem. (Tokyo) 103, 177-181 (1988), for argininosuccinate lyase as described in Surh, L. C., et al, Nucleic Acids Research, 16, 9352 (1988) and murine-inducible nitric oxide synthase as described in Lyons, C. R., et al, J. Biol. Chem. 267, 6370-6374 (1992). The primers are specifically described in Hattori, Y., et al, J. Biol. Chem. 269, 9405-9408 (1994). Polymerase chain reaction amplification was performed according to the following schedule: denaturation, annealing, and elongation at 95, 55 and 72° C. for 30 sec, 30 sec and 1 min, respectively, for 30 cycles. […] Polymerase chain reaction products were electrophoresed on a 1.5% agarose gel containing ethidium bromide and visualized by UV-induced fluorescence. […]"}, "[2]": {"test_system": "rat aortic smooth muscle cells", "test": "Nitrite production (indicator of cellular NO synthesis) by LPS/interferon-gamma induced rat aortic smooth muscle cells (Examples IV, V)", "type": "cell-based", "settings": "24 hours, FIG. 4", "method": "Rat aortic smooth muscle cells were grown as described in Example I and were continuously treated with 30 μg/ml of bacterial lipopolysaccharide in combination with 50 ng/ml of interferongamma. Concentrations of mithramycin as indicated in FIG. 4 were added either simultaneously with immunostimulant (filled in circles in FIG. 4) or 4 hours later (open circles in FIG. 4).\nNitrite was used as an indicator of cellular NO synthesis and assay was carried out as described in Gross, S. S., et al, J. Biol. Chem. 267, 25722-25729 (1992). In the assay, cells were treated with serum- and arginine-free RPMI 1640 medium containing the desired test agents for 24 hours. The accumulation of nitrite in the cell culture medium was quantified colorimetrically after adding 100 μl of Griess reagent (1% sulfanilamide and 0.1% naphthalene diamine in 5% o-phosphoric acid) to an equal volume of sample.\nRat aortic smooth muscle cells were grown as described in Example I and were treated with 30 μg/ml of bacterial lipopolysaccharide in combination with 50 ng/ml of interferon-gamma. Concentrations of L-citrulline and L-arginine as indicated in FIG. 5 were added simultaneously with immunostimulant. Nitrite was used as an indicator of cellular NO synthesis and assay therefor was carried out as described in Example IV."}, "[3]": {"test_system": "patient with Gram negative septicemia", "test": "Blood pressure in septicemia patient given N^G -methyl-L-arginine plus test agent (Examples X, XVI)", "type": "in vivo, human", "settings": "N^G -methyl-L-arginine 20 mg/kg bolus then 10 mg/kg/hr, plus mithramycin 25 μg/kg intravenously over 3-6 hours", "method": "A patient with Gram negative septicemia and blood pressure of 80/55 mm Hg is administered N^G -methyl-L-arginine in a bolus dose of 20 mg/kg intravenously in saline and thereafter is given a sustained infusion of N^G -methyl-L-arginine at a dosage of 10 mg/kg/hr. Mithramycin (25 μg/kg) is given intravenously in 50 ml saline over 3-6 hours starting at the time of the bolus dose of N^G -methyl-L-arginine. […] The patient is released after 2 days.\nA patient with a Gram negative septicemia and blood pressure of 80/55 mm Hg is administered N^G -methyl-L-arginine in a bolus dose of 20 mg/kg intravenously in saline and thereafter is given a sustained infusion of N^G -methyl-L-arginine at a dose of 10 mg/kg/hr. N^ω -Methyl-L-citrulline (40 mg/kg) is given intravenously in 50 ml saline over 3-6 hours starting at the time of the bolus dose of N^G -methyl-L-arginine."}}}
{"smiles": "COC(C(=O)C(O)C(C)O)C1Cc2cc3cc(OC4CC(OC5CC(O)C(O)C(C)O5)C(O)C(C)O4)c(C)c(O)c3c(O)c2C(=O)C1OC1CC(OC2CC(OC3CC(C)(O)C(O)C(C)O3)C(O)C(C)O2)C(O)C(C)O1", "note": "(stereo not shown) [mithramycin]", "values": [{"measurement": "gene transcription of nitric oxide synthase (mRNA level)", "setting": "[1]", "value": "inhibits gene transcription of argininosuccinate synthetase and nitric oxide synthase"}, {"measurement": "nitrite accumulation in cell culture medium", "setting": "[2]; mithramycin added 4 hours after immunostimulant", "value": "effectiveness to block NO production is markedly diminished"}, {"measurement": "nitrite accumulation in cell culture medium", "setting": "[2]; mithramycin added simultaneously with immunostimulant", "value": "inhibits induction of NO synthetic activity but is not a direct inhibitor of argininosuccinate synthetase or nitric oxide synthase"}, {"measurement": "blood pressure", "setting": "[3]", "value": "becomes normotensive within minutes of administration of the bolus dose of N^G -methyl-L-arginine and the normotensive state is sustained"}]}
